This note sets out measurements from patent publication US20220072083A1, “COMPOSITION FOR IMPROVING OR PREVENTING NONALCOHOLIC FATTY LIVER” (KOHJIN LIFE SCIENCES CO., LTD., priority 2015, published 2022).

The structures appear in SMILES notation.

Experiment [1] deals with Mice (C57/B6J, 8 weeks old male) fed with high-fat food. An excerpt:
Mice (C57/B6J, 8 weeks old male) were divided into 4 groups (5 animals each), and the first group (DB) was freely fed with ordinary food (CertifiedDiet “MF” manufactured by Oriental Yeast Co., ltd.). The second group (HFD) was freely fed with high-fat food (High Fat Diet 32, manufactured by CLEA Japan, Inc.), […].
When the mouse was 20 weeks old, the body weight, the liver weight, the serum aspartate aminotransferase (AST), the alanine aminotransferase (ALT), the serum triglyceride (TG), the free fatty acid value (FFA) and the total cholesterol value (T-cho) were measured.

Experiment [2] relates to subjects who had NAFLD in 31 IU/L or more of ALT.
[3] abbreviates: HFD6 (6 mg/kg/day) and HFD60 (60 mg/kg/day) groups in comparison to the HFD group, 20 weeks old.

For `N[C@@H](CCC(=O)N[C@@H](CS)C(=O)NCC(=O)O)C(=O)O` [glutathione], in experiment [1] (6 versus 60 mg/kg/day glutathione), the “serum AST, ALT, TG, FFA, T-cho: comparison of HFD6 group and HFD60 group” value was “decrease dependently on the concentration”. Moreover, in experiment [1] (setting [3]), the “serum ALT” value was “significant decrease”, the “serum AST” value is on record as “significant decrease”, the “serum FFA (free fatty acid value)” value is listed as “significant decrease” and the “serum T-cho (total cholesterol value)” value was “significant decrease”. For the same molecule, in experiment [1] (setting [3]), the “serum TG (triglyceride value)” value is listed as “significant decrease”. The “deposition of fat on the liver by high-fat food” value in experiment [1] (concluded from liver weight and liver/body weight ratio) was “suppressed”. The liver weight result in experiment [1] (high-fat food mice, glutathione 6 and 60 mg/kg/day in water, 20 weeks old) is on record as “decreased dependently on the concentration”. The body weight entry in experiment [1] (high-fat food mice, glutathione 6 or 60 mg/kg/day in water) is “decrease of the body weight was recognized”. Further, in experiment [2] (Case IDs 1 to 9 (group affected), at least one week after initiation of administration), the “improvement of ALT after the administration in comparison to ALT before the administration (0 wk)” value was no less than 20%. The “FibroScan (after treatment) CAP” value in experiment [2] (after treatment, oral glutathione 300 mg per day, one subject (Case ID) per table row) came to 280 dBe.
